Experiments:
WT mice [1] = test: Barnes maze, spatial learning and memory; type: in vivo, mouse
Experimental: (§1) VX-765 (Adooq Bioscience, Irvine, CA, USA) was dissolved 5 mg • ml^−1 in 20% cremophor in dH2O[60] (Sigma-Aldrich, ON, Canada) and administered IPWT and J20 mice received three injections per week of either 50 mg • kg^−1 VX-765 or 20% cremophor vehicle for 4 weeks between 2 and 3 months of age. Mice were longitudinally followed starting 4 weeks after the last injection [4-week washout (WO)], then every other month at 12- and 20-week WO (6 and 8 months of age, respectively). Intermediate 8- and 16-week WO periods were also looked at with a smaller number of mice. After each WO period, animals were randomly chosen, independent of behavioural performance, for sacrifice and assigned to either histological or biochemical analysis (Fig. 2a).
(§2) Open-field and novel object recognition (NOR) were measured at all WO periods. The Barnes maze was assessed at 12- and 20-week WO. Open field: Mice were placed in an open-field chamber, composed of a plexiglass box with no ceiling and white floor, and allowed to explore for 5 min. NOR: Mice were pre-exposed to two identical objects in the open-field chamber for 5 min. Two hours after pre-exposure, mice were placed back into the chamber and exposed to one familiar object and one novel object for 5 min (test phase). Mice were exposed to a specific object only once across multiple test sessions. Barnes maze: Learning acquisition (days 1–4)—each mouse was trained to find the target and enter the escape box within 180 s. Four trials per day, ~15 min apart, were performed for 4 consecutive days. Probe (day 5)—a single, 90 s trial was performed on each mouse to measure primary latency and number of errors to reach the blocked target. Target hole location was changed between the two separate test sessions. Behavioural scoring was blinded to mouse genotype and treatment.

J20 mice [2] = test: Barnes maze, spatial learning and memory; type: in vivo, mouse
Experimental: as §1, §2

Iba1-positive microglia = Iba1-positive microglia quantification and morphology (immunohistochemistry); type: in vivo, mouse
Experimental: as §1
Mice for immunohistochemistry were isoflurane anesthetized and perfused with ice-cold 4% paraformaldehyde in 0.1 M PBS (Sigma-Aldrich). Brains were post-fixed overnight in 10% neutral-buffered formalin (ThermoFisher Scientific, ON, Canada) and transferred to 70% ethanol for paraffin embedding and sectioning at 4 μm. Tissue slides underwent heat-induced antigen retrieval with citrate or EDTA buffer. Immunostaining was performed using the Dako Autostainer Plus slide processor and EnVision Flex system (Dako, ON, Canada). Sections were peroxidase treated, blocked in Serum-Free Protein Block, and immunostained with the following antibodies: 1:2000 rabbit anti-Iba1 (Wako, VA, USA), 1:500 rat anti-CD68 (clone FA-11, Bio-Rad, Hercules, CA, USA), 1:8000 rabbit anti-GFAP (Dako) and 1:2000 rabbit anti-Aβ1-40 (F25276, laboratory developed). CD68 antibody required an additional rabbit anti-rat IgG/HRP secondary reagent (Dako) incubation. […] Sections were digitally scanned with MIRAX SCAN (Zeiss, ON, Canada) and used for subsequent analyses.
Iba1-positive microglia were quantified using a modified version of an area-specific counting frame. The number of Iba1-positive cells per mm^3 in the anterior CA1 region and cortex was estimated across four sections, spaced 60 μm apart. Microglial activation level was determined based on morphological measurements[19],[41]. Aβ1-40 and GFAP immunostaining density was measured across four sections using ImageJ software (NIH, Bethesda, MD, USA). Quantification was blinded to treatment and genotype.

[3] = design: method as in PMID 30254377; conditions: cited from earlier work
WT mice [4] = test: open field; type: in vivo, mouse; conditions: 50 mg/kg IP 3x/week for 1 month
Experimental: as §1, §2

J20 mice [5] = test: open field; type: in vivo, mouse; conditions: 50 mg/kg IP 3x/week for 1 month, 4- to 20-week WO
Experimental: as §1, §2

WT mice [6] = test: novel object recognition (NOR), episodic memory; type: in vivo, mouse
Experimental: as §1, §2

J20 mice [7] = test: novel object recognition (NOR), episodic memory; type: in vivo, mouse
Experimental: as §1, §2

J20 mice [8] = test system: J20 mice; design: method as in PMID 30254377; conditions: cited from earlier work
[9] = J20, 12-week WO, probe 24 h after last training day

Question: Which results are given for `CCO[C@@H]1OC(=O)C[C@@H]1NC(=O)[C@@H]1CCCN1C(=O)[C@@H](NC(=O)c1ccc(N)c(Cl)c1)C(C)(C)C` [VX-765, (S)-1-((S)-2-{[1-(4-amino-3-chloro-phenyl)-methanoyl]-amino}-3,3-dimethyl-butanoyl)-pyrrolidine-2-carboxylic acid ((2R,3S)-2-ethoxy-5-oxo-tetrahydro-furan-3-yl)-amide]?
Answer: Barnes maze probe primary latency and primary errors (WT mice [1]; 12-week WO, vs vehicle-treated WT): decreased primary latency and primary errors compared to vehicle-treated WT mice; Barnes maze probe primary latency and primary errors (WT mice [1]; 20-week WO): This effect was attenuated at 20-week WO; Barnes maze probe preference towards the target area (J20 mice [2]; 12-week WO): All groups, except the vehicle-treated J20 group, showed a preference towards the target area; Barnes maze training primary latency (J20 mice [2]; 12-week WO, all groups): did not differ between groups; Barnes maze learning acquisition primary errors (J20 mice [2]; J20, 12-week WO, 50 mg/kg IP 3x/week for 1 month): prevented this learning deficit in J20 mice and reduced the number of errors committed to near WT levels; Barnes maze probe primary errors (J20 mice [2]; [9]): VX-765 treatment prevented this deficit; Barnes maze probe primary latency (J20 mice [2]; [9]): did not differ between vehicle- or VX-765-treated J20 and vehicle-treated WT groups; Barnes maze learning deficits (J20 mice [2]; J20, 20-week WO): vehicle-, but not VX-765-treated, J20 mice exhibited learning deficits; Barnes maze probe primary latency and primary errors (J20 mice [2]; J20, 20-week WO): these deficits were prevented with VX-765 treatment; type III, amoeboid-appearing, microglia (Iba1-positive microglia; J20, 20-week WO): significantly higher in vehicle- and VX-765-treated J20 mice at 20-week WO; duration of reduced microglial activation (Iba1-positive microglia; J20 cortex): ≤ 5 months; duration of reduced microglial activation (Iba1-positive microglia; J20 hippocampus): up to 4 months; microglial morphological profile (type I resting / type II activated) (Iba1-positive microglia; J20 hippocampus and cortex): reverted the profile in J20 mice back to a near WT profile at 4-week WO, but it slowly shifted from a resting to an activated state morphologically similar to vehicle-treated J20 mice from 12-week WO onwards; Iba1-positive microglia numbers (Iba1-positive microglia; J20 hippocampus and cortex, all WO periods): prevented this increase, normalizing Iba1-positive numbers to near WT levels, although numbers did not reach significance in the hippocampus at 8- and 20-week WO; type IV microglia (Iba1-positive microglia; J20 hippocampus, 20-week WO): elevated in the hippocampus of VX-765-treated J20 mice at 20-week WO; concentration in the J20 brain ([3]; 50 mg/kg dose of VX-765, carotid infusion, J20 mice): 2000 to 5000 nM; blood–brain barrier permeability [3]: blood–brain barrier permeable; open field activity (WT mice [4]; WT, all WO periods): had no effect on WT mice at any WO period; open field locomotor activity, time moving, thigmotaxis (WT mice [4]; between vehicle and VX-765 treatment): no differences in locomotor activity, time moving or thigmotaxis; open field hyperactivity (distance travelled, quadrant entries) (J20 mice [5]): attenuated hyperactivity in J20 mice only at 4-week WO; NOR performance (WT mice [6]; VX-765-treated WT, 6-month-old (12-week WO) vs VX-765-treated 4-month-old WT): increased; NOR performance (WT mice [6]; WT, 8-month-old (20-week WO), 50 mg/kg IP 3x/week for 1 month, vs same age vehicle-treated WT): increased; percentage of NOR impaired mice (WT mice [6]; WT, 50 mg/kg IP 3x/week for 1 month, 12- to 20-week WO): increased between 12- and 20-week WO in the vehicle-treated, but not VX-765-treated WT mice; delay of the onset of cognitive impairment (J20 mice [7]; J20, 50 mg/kg IP 3x/week for 1 month, pre-symptomatic): at least 5 months; NOR discrimination index (NOR impairment) (J20 mice [7]; J20, pre-symptomatic 50 mg/kg IP 3x/week for 1 month, 4-, 8-, 12-, 16- and 20-week WO, vs vehicle-treated J20): protected J20 mice against NOR impairment at all WO periods; percentage of NOR impaired mice (J20 mice [7]; VX-765-treated J20, 50 mg/kg IP 3x/week for 1 month): increased consistently between 4- and 20-week WO; NOR performance over washout (J20 mice [7]; VX-765-treated J20, 50 mg/kg IP 3x/week for 1 month, 4- vs 20-week WO): declined between 4- and 20-week WO; toxicity (J20 mice [8]): non-toxic; memory deficits, inflammation, synaptic loss and Aβ accumulation (J20 mice [8]; given at the onset of the J20 mouse symptoms): reverses spatial and episodic memory deficits, inflammation and synaptic loss, and prevents progressive Aβ accumulation
